The structures appear in SMILES notation.

Among the data in patent US20250177396A1, “POLO-LIKE KINASE 4 (PLK4) INHIBITORS, PHARMACEUTICAL COMPOSITIONS, METHODS OF PREPARATION AND USES THEREOF” (Repare Therapeutics Inc., priority 2022, published 2025) are IC50 values, retold here.

For the experiment, the target named is T1, PLK4 (Homo sapiens, UniProt O00444).
T1 construct: expressed in transfected cells; host or cells: HEK293 T cells (ATCC CRL-3216)
T1 sequence (O00444 1-970): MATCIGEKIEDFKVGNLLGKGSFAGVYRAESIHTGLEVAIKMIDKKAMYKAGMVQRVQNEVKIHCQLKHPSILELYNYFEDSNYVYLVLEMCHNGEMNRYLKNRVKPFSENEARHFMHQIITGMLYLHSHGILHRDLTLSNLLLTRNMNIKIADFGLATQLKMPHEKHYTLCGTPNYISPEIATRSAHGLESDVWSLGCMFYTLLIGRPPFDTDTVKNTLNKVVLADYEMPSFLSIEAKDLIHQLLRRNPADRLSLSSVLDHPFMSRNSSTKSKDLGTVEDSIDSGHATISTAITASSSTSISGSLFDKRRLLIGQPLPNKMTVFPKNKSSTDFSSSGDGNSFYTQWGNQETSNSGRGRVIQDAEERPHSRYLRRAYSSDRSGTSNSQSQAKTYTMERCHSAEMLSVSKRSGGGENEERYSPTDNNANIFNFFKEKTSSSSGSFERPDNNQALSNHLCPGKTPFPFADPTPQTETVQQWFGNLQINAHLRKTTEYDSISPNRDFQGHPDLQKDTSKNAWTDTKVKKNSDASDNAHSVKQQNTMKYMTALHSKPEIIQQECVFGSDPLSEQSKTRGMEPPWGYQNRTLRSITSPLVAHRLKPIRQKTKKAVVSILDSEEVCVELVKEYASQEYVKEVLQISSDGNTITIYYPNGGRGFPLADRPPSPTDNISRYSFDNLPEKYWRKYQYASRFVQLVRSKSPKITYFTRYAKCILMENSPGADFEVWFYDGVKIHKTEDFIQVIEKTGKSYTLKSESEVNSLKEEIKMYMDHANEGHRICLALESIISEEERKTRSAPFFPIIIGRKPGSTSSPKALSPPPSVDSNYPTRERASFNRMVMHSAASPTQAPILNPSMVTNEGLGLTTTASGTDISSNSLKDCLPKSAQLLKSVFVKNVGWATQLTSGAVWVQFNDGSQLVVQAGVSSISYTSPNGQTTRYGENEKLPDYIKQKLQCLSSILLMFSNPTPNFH
Put plainly: PLK4 NanoBRET target engagement assay. The format is binding. To be noted: HEK293 T cells transfected with PLK4 NanoLuc fusion vector; K-5 tracer; 2 hrs incubation. In outline: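 HEK293T cells transiently expressing PLK4-NanoLuc, plated at 17000 cells/well with K-5 tracer and compound, incubated 2 h at 37 °C/5% CO2. After substrate/inhibitor mix, 610/450 nm emission ratio ×1000 gave mBRET; IC50 from 4-parameter fit.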
Take `Cc1cc(Nc2nc(N(C)c3c(F)cc(S(C)(=O)=O)cc3F)nc(-c3cnn(C)c3C(C)O)c2C2CC2)n[nH]1` (stereo not drawn) [Compound 312]: it took 15 nM to reach half-maximal inhibition (IC50). Under `Cc1cc(Nc2nc(N(C)c3c(F)cc(S(C)(=O)=O)cc3F)nc(Nc3cc(C)[nH]n3)c2C2CC2)n[nH]1` [Compound 313] stands 18 nM. With `CN(c1nc(Nc2cc(C3CC3)[nH]n2)c(C2CC2)c(-c2cn(C)cn2)n1)c1ccc(S(C)(=O)=O)cc1F` [Compound 315], half-maximal inhibition (IC50) was put at 23 nM. Under `Cc1cc(Nc2nc(N(C)c3c(F)cc(S(C)(=O)=O)cc3F)nc(-c3cn[nH]c3C3CC3)c2C2CC2)n[nH]1` [Compound 316] stands 5 nM; under `Cc1cc(Nc2nc(N(C)c3c(F)cc(S(C)(=O)=O)cc3F)nc(-c3cn[nH]c3C#N)c2C2CC2)n[nH]1` [Compound 317], 27 nM. Under `Cc1cc(Nc2nc(N(C)c3c(F)cc(S(C)(=O)=O)cc3F)nc(-c3cc(C(=O)N(C)C)n(C)n3)c2C2CC2)n[nH]1` [Compound 319] stands 5 nM; under `Cc1cc(Nc2nc(N(C)c3c(F)cc(S(C)(=O)=O)cc3F)nc(-c3cnn(C)c3N(C)C)c2C2CC2)n[nH]1` [Compound 320], 4 nM; under `Cc1cc(Nc2nc(N(C)c3c(F)cc(S(C)(=O)=O)cc3F)nc(-c3cc(C(N)=O)n(C)n3)c2C2CC2)n[nH]1` [Compound 321], 11 nM. Under `Cc1cc(Nc2nc(N(C)c3c(F)cc(S(C)(=O)=O)cc3F)nc(-c3cn(C)c(C4(O)CCC4)n3)c2C2CC2)n[nH]1` [Compound 322] stands 12 nM. `Cc1cc(Nc2nc(N(C)c3c(F)cc(S(C)(=O)=O)cc3F)nc(-c3cn(C)c(C(C)(C)O)n3)c2C2CC2)n[nH]1` [Compound 323] displayed an IC50 of 10 nM. The same measure for `COC1CCc2nc(-c3nc(N(C)c4c(F)cc(S(C)(=O)=O)cc4F)nc(Nc4cc(C)[nH]n4)c3C3CC3)cn2C1` (stereo not drawn) [Compound 324]: 3 nM; for `Cc1cc(Nc2nc(N(C)c3c(F)cc(S(C)(=O)=O)cc3F)nc(Nc3ccn(C)n3)c2C2CC2)n[nH]1` [Compound 325]: 52 nM. As for `Cc1cc(Nc2nc(N(C)c3c(F)cc(S(C)(=O)=O)cc3F)nc(-c3cnn4cccnc34)c2C2CC2)n[nH]1` [Compound 326], the midpoint of inhibition, the IC50, lay at 9 nM. As for `Cc1cc(Nc2nc(N(C)c3c(F)cc(S(C)(=O)=O)cc3F)nc(Nc3cnccn3)c2C2CC2)n[nH]1` [Compound 328], the midpoint of inhibition, the IC50, lay at 51 nM. Under `Cc1cc(Nc2nc(N(C)c3c(F)cc(S(C)(=O)=O)cc3F)nc(-c3cn(C)nc3CC#N)c2C2CC2)n[nH]1` [Compound 329] stands 4 nM; under `Cc1cc(Nc2nc(N(C)c3c(F)cc(S(C)(=O)=O)cc3F)nc(-c3cn(CC(C)(C)O)nc3C)c2C2CC2)n[nH]1` [Compound 330], 9 nM. `CN(c1nc(Nc2cc(C3CC3)[nH]n2)c(C2CC2)c(-c2ccnn2C2CC2)n1)c1c(F)cc(S(C)(=O)=O)cc1F` [Compound 331] gave a half-inhibitory concentration (IC50) of 14 nM. Regarding `Cc1cc(Nc2nc(N(C)c3c(F)cc(S(C)(=O)=O)cc3F)nc(N3CCC[C@@H]3C#N)c2C2CC2)n[nH]1` [Compound 332], the IC50 is 33 nM. For the compound `Cc1cc(Nc2nc(N(C)c3c(F)cc(S(C)(=O)=O)cc3F)nc(-c3cnn(C)c3C(=O)N(C)C3CC3)c2C2CC2)n[nH]1` [Compound 333], the IC50 worked out at 11 nM. Consider `Cc1cc(Nc2nc(N(C)c3c(F)cc(S(C)(=O)=O)cc3F)nc(Nc3cnn(C)c3)c2C2CC2)n[nH]1` [Compound 334], for which the concentration for half-maximal inhibition (IC50) was 37 nM. The same measure for `Cc1cc(Nc2nc(N(C)c3c(F)cc(Br)cc3F)nc(-c3cn(C)cn3)c2C2CC2)n[nH]1` [Compound 335]: 43 nM; for `Cc1cc(Nc2nc(N(C)c3c(F)cc(S(C)(=O)=O)cc3F)nc(-c3cnn(CC(C)(C)O)c3C)c2C2CC2)n[nH]1` [Compound 336]: 8 nM; for `Cc1cc(Nc2nc(N(C)c3c(F)cc(Cl)cc3F)nc(-c3cn(C)cn3)c2C2CC2)n[nH]1` [Compound 337]: 62 nM. The same measure for `COc1cc(F)c(N(C)c2nc(Nc3cc(C)[nH]n3)c(C3CC3)c(-c3cn(C)cn3)n2)c(F)c1` [Compound 338]: 77 nM.
